# According to US20260216294A1, “BETA 2-ADRENERGIC RECEPTOR AGONISTS FOR TREATMENT OR PREVENTION OF MUSCLE WASTING” (ATROGI AB, priority 2023, published 2026):
# Legend:
# L6-myotubes [1] = test: Measurement of intracellular cAMP levels in differentiated L6-myotubes (Biological Example 3); assay type: cell-based; conditions: 0.25 h
# Summary of the method: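 Intracellular cAMP quantified by AlphaScreen after ethanol extraction and lysis of L6 myotubes. Cells were serum-starved overnight, then exposed for 15 min to compound (final 1×10^−5 M) or isoprenaline in IBMX-containing (1 mM) HBSS buffer, pH 7.4.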
# L6-myotubes [2] = test: Glucose uptake in differentiated L6-myotubes (Biological Example 2); assay type: cell-based; conditions: read-out: Biological example 2 (GU)
# Summary of the method: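 Uptake was quantified as radioactivity in 0.2 M NaOH lysates after a 10 min pulse of 50 nM ^3H-2-deoxyglucose. The pulse followed two agonist exposures at 1×10^−5 M final (isoprenaline or test compound): 1 h 40 min, then 20 min in glucose-free medium after washing. L6 myotubes had been starved overnight in medium with 0.5% fatty-acid-free BSA.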
# [3] = intracellular cAMP in differentiated L6-myotubes, compound at 10 μM, activity relative to isoproterenol at 10 μM
# [4] = glucose uptake in differentiated L6-myotubes, compound at 10 μM, activity relative to isoproterenol at 10 μM
# [5] = intracellular cAMP, compound at 10 μM relative to isoproterenol at 10 μM
# [6] = glucose uptake, compound at 10 μM relative to isoproterenol at 10 μM
Compound,Emax at 10 µM (L6-myotubes [1]; [3]),Emax at 10 µM (L6-myotubes [2]; [4]),Emax at 10 µM (L6-myotubes [1]; [5]),Emax at 10 µM (L6-myotubes [2]; [6])
"CC(=O)N(Cc1ccccc1)[C@H]1CC[C@@H](C[C@@H]2CC[C@H]([C@H](O)c3cccc(F)c3)N2)CC1 [Compound 480, N-[(1R,4s)-4-({(2S,5R)-5-[(R)-(m-fluorophenyl) hydroxymethyl]-2-pyrrolidinyl}methyl)cyclohexyl]-N-benzylacetamide]",< 25%,< 25%,–,–
O[C@H](c1cccc(F)c1)C12CCC(COCc3ccc(OC(F)(F)F)cc3)(CC1)N2 [Compound 488],< 25%,< 25%,–,–
"COc1ccc(CC23CCC([C@H](O)c4cccc(F)c4)(CC2)N3)cc1 [Compound 401, (R)-(m-fluorophenyl){4-[(p-methoxyphenyl)methyl]-7-azabicyclo[[2.2.1]]hept-1-yl}methanol]",< 25%,> 75%,–,–
CC1(C)CC[C@H]([C@@H](O)c2ccccc2Cl)N1 [Compound 151],–,–,< 25%,< 25%
"CC(C)(NC[C@H](O)c1cncc(F)c1)[C@H]1CC[C@@H](C(=O)O)CC1 [Compound 323, (1S,4s)-8-[(R)-2-(5-fluoro-3-pyridyl)-2-hydroxyethylamino]-7-hydroxy-p-menthan-7-one]",50 to 75%,25 to 50%,–,–
CC1(C)C[C@H]([C@H](O)c2cccc(Cl)c2)N1 [Compound 230],< 25%,> 75%,–,–
CC(C)(NC[C@H](O)c1cccc(F)c1)[C@H]1CC[C@@H](OCC(=O)O)CC1 [Compound 408],< 25%,50 to 75%,–,–
"Oc1ccc(C(O)CNCC2CCCCC2)cc1 (stereo not shown) [Compound 6, 2-[(cyclohexylmethyl)amino]-1-(p-hydroxyphenyl)-1-ethanol]",–,–,< 25%,> 75%
"CCC[C@@H]1CCC[C@H]([C@@H](O)c2cccc(O)c2)N1 [Compound 137, (S)-[(2R,6R)-6-propyl-2-piperidyl](m-hydroxyphenyl)methanol]",–,–,< 25%,25 to 50%
"CC(=O)N(Cc1ccccc1)[C@H]1CC[C@@H](C[C@@H]2CC[C@H]([C@@H](O)c3cccc(F)c3)N2)CC1 [Compound 479, N-[(1R,4s)-4-({(2S,5R)-5-[(S)-(m-fluorophenyl) hydroxymethyl]-2-pyrrolidinyl}methyl)cyclohexyl]-N-benzylacetamide]",< 25%,< 25%,–,–
CC(C)(C[C@H]1CC[C@H](NS(=O)(=O)C2CC2)CC1)NC[C@H](O)c1cccc(F)c1 [Compound 496],< 25%,50 to 75%,–,–
CS(=O)(=O)N[C@H]1CC[C@H](CNC[C@H](O)c2cncc(F)c2)CC1 [Compound 313],< 25%,25 to 50%,–,–
CC(C)(NC[C@H](O)c1cncc(F)c1)[C@H]1CC[C@H](OCC(=O)O)CC1 [Compound 419],< 25%,50 to 75%,–,–
CC(C)CS(=O)(=O)N[C@H]1CC[C@H](CC(C)(C)NC[C@H](O)c2cncc(F)c2)CC1 [Compound 526],< 25%,50 to 75%,–,–
CC(C)(NC[C@H](O)c1cccc(F)c1)[C@H]1CC[C@H](OCC(=O)O)CC1 [Compound 402],< 25%,50 to 75%,–,–
CCC[C@H]1CCC[C@H]([C@@H](O)c2cncc(F)c2)N1 [Compound 139],–,–,< 25%,< 25%
"CCC[C@@H](C)NC[C@H](O)c1ccc(F)cc1 [Compound 52, (R)-2-[(R)-1-methylbutylamino]-1-(p-fluorophenyl)-1-ethanol]",–,–,< 25%,50 to 75%
"O[C@@H](c1cncc(F)c1)C12CCC(CCc3ccc(OC(F)(F)F)cc3)(CC1)N2 [Compound 543, (S)-(5-fluoro-3-pyridyl){4-[2-(p-trifluoromethoxyphenyl)ethyl]-7-azabicyclo[[2.2.1]]hept-1-yl}methanol]",< 25%,< 25%,–,–
"CO[C@H]1CC[C@H](CC(C)(C)NC[C@H](O)c2cccc(F)c2)CC1 [Compound 249, (R)-2-{1,1-dimethyl-2-[(1r,4R)-4-methoxycyclohexyl]ethylamino}-1-(m-fluorophenyl)-1-ethanol]",< 25%,> 75%,–,–
CS(=O)(=O)N[C@H]1CC[C@H](C[C@@H]2CC[C@H]([C@H](O)c3cccc(F)c3)N2)CC1 [Compound 504],< 25%,50 to 75%,–,–
"CC(C)(C)NC[C@H](O)c1ccc(F)c(N)c1F [Compound 149, (R)-1-(3-amino-2,4-difluorophenyl)-2-(tert-butylamino)-1-ethanol]",–,–,25 to 50%,> 75%

Compound,Emax at 10 µM (L6-myotubes [1]; [3]),Emax at 10 µM (L6-myotubes [2]; [4]),Emax at 10 µM (L6-myotubes [1]; [5]),Emax at 10 µM (L6-myotubes [2]; [6])
"CC(C)(NC[C@H](O)c1cccc(F)c1)[C@H]1CC[C@@H](OCc2ccccc2)CC1 [Compound 280, (R)-1-(m-fluorophenyl)-2-{1-methyl-1-[(1s,4S)-4-(benzyloxy)cyclohexyl]ethylamino}-1-ethanol]",< 25%,> 75%,–,–
CC1(C)C[C@@H]([C@@H](O)c2cccc(Cl)c2)N1 [Compound 231],< 25%,25 to 50%,–,–
"CC12CCC([C@H](O)c3ccncc3F)(CC1)N2 [Compound 254, (R)-(3-fluoro-4-pyridyl)(4-methyl-7-azabicyclo[[2.2.1]]hept-1-yl)methanol]",< 25%,< 25%,–,–
"CS(=O)(=O)N(Cc1ccccc1)CC12CCC([C@@H](O)c3cccc(F)c3)(CC1)N2 [Compound 538, (S)-(4-{[(benzyl)-N-mesylamino]methyl}-7-azabicyclo[[2.2.1]]hept-1-yl)(m-fluorophenyl)methanol]",< 25%,50 to 75%,–,–
"O[C@@H](CNCCC[C@H]1CC[C@@H](O)CC1)c1cccc(F)c1 [Compound 306, (R)-1-(m-fluorophenyl)-2-{3-[(1s,4R)-4-hydroxycyclohexyl]propylamino}-1-ethanol]",< 25%,25 to 50%,–,–
"O[C@@H](CNCCC[C@H]1CC[C@H](OCc2ccccc2)CC1)c1cncc(F)c1 [Compound 276, (R)-1-(5-fluoro-3-pyridyl)-2-{3-[(1r,4S)-4-(benzyloxy)cyclohexyl]propylamino}-1-ethanol]",< 25%,25 to 50%,–,–
CCC[C@H]1CCC[C@H]([C@H](O)c2cccc(F)c2)N1 [Compound 69],–,–,< 25%,50 to 75%
O[C@H](c1cccc(F)c1)[C@H]1CCC2(CCCC2)N1 [Compound 168],–,–,25 to 50%,50 to 75%
CC(C)(NC[C@H](O)c1cccc(F)c1)[C@H]1CC[C@H](N)CC1 [Compound 381],< 25%,50 to 75%,–,–
"CC12CCC([C@H](O)c3ccccc3F)(CC1)N2 [Compound 181, (R)-(o-fluorophenyl)(4-methyl-7-azabicyclo[[2.2.1]]hept-1-yl)methanol]",–,–,< 25%,> 75%
"CC(C)(NC[C@H](O)c1cccc(F)c1)[C@H]1CC[C@H](NS(C)(=O)=O)CC1 [Compound 385, (R)-1-(m-fluorophenyl)-2-{1-methyl-1-[(1r,4R)-4-(mesylamino)cyclohexyl]ethylamino}-1-ethanol]",< 25%,50 to 75%,–,–
"O[C@@H](c1cncc(F)c1)[C@H]1CC[C@@H](Cc2ccc(Cl)cc2)N1 [Compound 403, (S)-{(2R,5S)-5-[(p-chlorophenyl)methyl]-2-pyrrolidinyl}(5-fluoro-3-pyridyl)methanol]",< 25%,50 to 75%,–,–
CC(C)(C[C@H]1CC[C@H](NS(=O)(=O)C(F)(F)F)CC1)NC[C@H](O)c1cccc(F)c1 [Compound 458],< 25%,> 75%,–,–
CCC[C@@H]1CC[C@H]([C@H](O)c2cccc(F)c2)N1 [Compound 58],–,–,25 to 50%,> 75%
CC(=O)N[C@H]1CC[C@@H](CC(C)(C)NC[C@@H](O)c2cccc(C#N)n2)CC1 [Compound 423],< 25%,< 25%,–,–
"CCCCNCC(O)c1ccc(Cl)c(O)c1 (stereo not shown) [Compound 34, 2-(butylamino)-1-(4-chloro-3-hydroxyphenyl)-1-ethanol]",–,–,< 25%,> 75%
"CC(C)(NC[C@H](O)c1cncc(F)c1)[C@H]1CC[C@H](NS(C)(=O)=O)CC1 [Compound 345, (R)-1-(5-fluoro-3-pyridyl)-2-{1-methyl-1-[(1r,4R)-4-(mesylamino)cyclohexyl]ethylamino}-1-ethanol]",< 25%,25 to 50%,–,–
"CO[C@H]1CC[C@H](CCC(C)(C)NC[C@H](O)c2cccc(F)c2)CC1 [Compound 265, (R)-2-{1,1-dimethyl-3-[(1r,4S)-4-methoxycyclohexyl]propylamino}-1-(m-fluorophenyl)-1-ethanol]",< 25%,50 to 75%,–,–
"COC(=O)[C@H]1CC[C@H](CC(C)(C)NC[C@H](O)c2cccc(F)c2)CC1 [Compound 353, methyl (1R,4r)-4-{2-[(R)-2-(m-fluorophenyl)-2-hydroxyethylamino]-2-methylpropyl} cyclohexanecarboxylate]",< 25%,> 75%,–,–
"CCC[C@H]1CC[C@H]([C@H](O)c2cccc(F)c2)N1 [Compound 124, (R)-[(2R,5S)-5-propyl-2-pyrrolidinyl](m-fluorophenyl)methanol]",–,–,< 25%,50 to 75%
